In the NIST ThermoML archive (doi:10.1021/je050540h):

Experiment: xn = mol fraction of the nth substance listed
Conditions: Liquid; for speed of sound: 7 kPa; for mass density / viscosity: 101 kPa

CCCC(C)O (stereo not drawn) [pentan-2-ol] + C1CCCCC1
Conditions | mass density, 293.15 K [kg/m3] | mass density, 298.15 K [kg/m3] | mass density, 303.15 K [kg/m3] | speed of sound, 293.15 K [m/s] | speed of sound, 298.15 K [m/s] | speed of sound, 303.15 K [m/s] | viscosity, 293.15 K [mPa·s] | viscosity, 298.15 K [mPa·s] | viscosity, 303.15 K [mPa·s]
x2 = 0 | 809.04 | 805.01 | 800.9 | 1250 | 1232 | 1214 | 4.001 | 3.273 | 2.774
x2 = 0.0495 | 806.87 | 802.77 | 798.6 | 1247 | 1229 | 1210 | 3.606 | 2.969 | 2.474
x2 = 0.1002 | 804.68 | 800.52 | 796.28 | 1244 | 1225 | 1206 | 3.195 | 2.658 | 2.237
x2 = 0.2019 | 800.29 | 796 | 791.65 | 1238 | 1218 | 1199 | 2.516 | 2.125 | 1.82
x2 = 0.3067 | 796.06 | 791.67 | 787.23 | 1234 | 1213 | 1193 | 1.922 | 1.659 | 1.441
x2 = 0.4011 | 792.42 | 787.98 | 783.48 | 1231 | 1210 | 1189 | 1.583 | 1.385 | 1.233
x2 = 0.5085 | 788.62 | 784.11 | 779.56 | 1230 | 1209 | 1187 | 1.317 | 1.178 | 1.058
x2 = 0.6066 | 785.63 | 781.09 | 776.49 | 1232 | 1211 | 1189 | 1.17 | 1.056 | 0.957
x2 = 0.7118 | 782.94 | 778.32 | 773.65 | 1239 | 1216 | 1194 | 1.067 | 0.97 | 0.885
x2 = 0.8096 | 780.86 | 776.18 | 771.44 | 1247 | 1224 | 1201 | 1.045 | 0.952 | 0.871
x2 = 0.9049 | 779.29 | 774.54 | 769.74 | 1259 | 1235 | 1211 | 1.009 | 0.924 | 0.845
x2 = 0.9557 | 778.62 | 773.86 | 769.07 | 1267 | 1243 | 1219 | 0.997 | 0.912 | 0.837
